In brackets after ≈: the same amount, converted by molar mass. Like-named read-outs stand apart in the source and are kept apart here.
What was measured:
[1] = system: Saccharomyces cerevisiae (Sc); assay: MIC against yeast/fungi (malt yeast agar); format: cell-based, Saccharomyces cerevisiae ATCC 4105; settings: 30° C., yeast read after 48 h, read-out: Minimum Inhibitory Concentration, Sc
Description: (§1) The antimicrobial activity of the compounds of the present invention is set forth as the minimum inhibitory concentration (MIC) for the active compounds and is determined for nine (9) bacteria, using nutrient agar, and seven (7) yeast and fungi, using malt yeast agar. This determination is conducted using a one percent solution of the test compound prepared in a mixture of acetone and water.
(§2) Malt yeast agar is prepared by adding 3 g yeast extract and 45 g malt agar per liter of deionized water. The specific agar is dispensed in 30 mL aliquots into 25×200 mm test tubes, capped and autoclaved for 15 minutes at 115° C.
(§3) The test tubes containing the agar are cooled in a water bath until the temperature of the agar is 48° C. Then, an appropriate amount of the one percent solution of the test compound is added (except in the controls where no compound is added) to the respective test tubes so that the final concentrations are 500, 250, 100, 50, 25, 10, 5, 2.5, 1.0 and zero parts per million of the test compound in the agar, thus having a known concentration of test compound dispersed therein. The contents of the test tubes are then transferred to respective petri plates. After drying for 24 hours, the petri plates containing nutrient agar are inoculated with bacteria and those containing malt yeast agar are inoculated with yeast and fungi.
(§4) The inoculation with the yeast and fungi is accomplished as follows. Cultures of yeast and fungi are incubated for seven days on malt yeast agar at 30° C. These cultures are used to prepare suspensions by the following procedure. A suspension of each organism is prepared by adding 10 mL of sterile saline and 10 microliters of octylphenoxy polyethoxy ethanol to the agar slant of yeast or fungi. The sterile saline/octylphenoxy polyethoxy ethanol solution is then agitated with a sterile swab to suspend the microorganism grown on the slant. Each resulting suspension is diluted into sterile saline (1 part suspension to 9 parts sterile saline). Aliquots of these dilutions are placed in individual wells of Steer's Replicator and petri plates inoculated as previously described. The petri plates are incubated at 30° C. and read after 48 hours for yeast and 72 hours for fungi.
(§5) Table I lists the bacteria, yeast and fungi used in the MIC test described above along with their respective American Type Culture Collection (ATCC) identification numbers.

[2] = system: Psuedomonas aeruginosa (Pa); assay: MIC against bacteria (nutrient agar); format: cell-based, Psuedomonas aeruginosa ATCC 10145; settings: 30° C., 48 h, read-out: Minimum Inhibitory Concentration, Pa
Description: as §1
Nutrient agar is prepared at pH 6.8, representing a neutral medium, and at pH 8.2, representing an alkaline medium. The nutrient agars are prepared by adding 23 g of nutrient agar to one-liter of deionized water. In addition, the alkaline medium is prepared by adjusting a 0.04M solution of N-[tris-(hydroxymethyl)methyl]-glycine buffered deionized water with concentrated sodium hydroxide to a pH of 8.5.
as §3
The inoculation with bacteria is accomplished by using the following procedure. Twenty-four hour-cultures of each of the bacteria are prepared by incubating the respective bacteria in tubes containing nutrient broth for 24 hours at 30° C. in a shaker. Dilutions of each of the 24 hour-cultures are made so that nine separate suspensions (one for each of the nine test bacteria) are made, each containing 10^8 colony forming units (CFU) per mL of suspension of a particular bacteria. Aliquots of 0.3 mL of each of the bacterial suspensions are used to fill the individual wells of Steer's Replicator. For each microbial suspension, 0.3 mL was used to fill three wells (i.e., three wells of 0.3 mL each) so that for the nine different bacteria, 27 wells are filled. The Steer's Replicator is then used to inoculate both the neutral and alkaline pH nutrient agar petri plates.
The inoculated petri plates are incubated at 30° C. for 48 hours and then read to determine if the test compound which is incorporated into the agar prevented growth of the respective bacteria.
as §5

[3] = system: Klebsiella pneumoniae (Kp); assay: MIC against bacteria (nutrient agar); format: cell-based, Klebsiella pneumoniae ATCC 8308; settings: 30° C., 48 h, read-out: Minimum Inhibitory Concentration, Kp
[4] = system: Fusarium oxysporum (Fo); assay: MIC against yeast/fungi (malt yeast agar); format: cell-based, Fusarium oxysporum ATCC 48112; settings: 30° C., fungi read after 72 h, read-out: Minimum Inhibitory Concentration, Fo
Description: as §1, §2, §3, §4, §5

[5] = system: Proteus vulgaris (PV); assay: MIC against bacteria (nutrient agar); format: cell-based, Proteus vulgaris ATCC 881; settings: 30° C., 48 h, read-out: Minimum Inhibitory Concentration, Pv
[6] = system: Escherichia coli (Ec); assay: MIC against bacteria (nutrient agar); format: cell-based, Escherichia coli ATCC 11229; settings: 30° C., 48 h, read-out: Minimum Inhibitory Concentration, Ec
[7] = system: Staphylococcus aureus (Sa); assay: MIC against bacteria (nutrient agar); format: cell-based, Staphylococcus aureus ATCC 6538; settings: 30° C., 48 h, read-out: Minimum Inhibitory Concentration, Sa
[8] = system: Aperigillus niger (An); assay: MIC against yeast/fungi (malt yeast agar); format: cell-based, Aperigillus niger ATCC 16404; settings: 30° C., fungi read after 72 h, read-out: Minimum Inhibitory Concentration, An
Description: as §1, §2, §3, §4, §5

[9] = system: Psuedomonas aeruginosa (PRD-10); assay: MIC against bacteria (nutrient agar); format: cell-based, Psuedomonas aeruginosa ATCC 15442; settings: 30° C., 48 h, read-out: Minimum Inhibitory Concentration, PRD
[10] = system: Pencillium chrysogenum (Pc); assay: MIC against yeast/fungi (malt yeast agar); format: cell-based, Pencillium chrysogenum ATCC 9480; settings: 30° C., fungi read after 72 h, read-out: Minimum Inhibitory Concentration, Pc
Description: as §1, §2, §3, §4, §5

[11] = system: Trichoderma viride (Tv); assay: MIC against yeast/fungi (malt yeast agar); format: cell-based, Trichoderma viride ATCC 8678; settings: 30° C., fungi read after 72 h, read-out: Minimum Inhibitory Concentration, Tv
Description: as §1, §2, §3, §4, §5

[12] = system: Aureobasidium pullulan (Ap); assay: MIC against yeast/fungi (malt yeast agar); format: cell-based, Aureobasidium pullulan ATCC 16622; settings: 30° C., yeast 48 h / fungi 72 h, read-out: Minimum Inhibitory Concentration, Ap
Description: as §1, §2, §3, §4, §5

[13] = system: Bacillus subtilis (Bs); assay: MIC against bacteria (nutrient agar); format: cell-based, Bacillus subtilis ATCC 8473; settings: 30° C., 48 h, read-out: Minimum Inhibitory Concentration, Bs
[14] = system: Enterobacter aerogenes (Ea); assay: MIC against bacteria (nutrient agar); format: cell-based, Enterobacter aerogenes ATCC 13048; settings: Klebsiella aerogenes, 30° C., 48 h, read-out: Minimum Inhibitory Concentration, Ea
[15] = system: Salmonella choleraesuis (Sc); assay: MIC against bacteria (nutrient agar); format: cell-based, Salmonella choleraesuis ATCC 10708; settings: Salmonella enterica, 30° C., 48 h, read-out: Minimum Inhibitory Concentration, Sc
[16] = system: Candida albicans (Ca); assay: MIC against yeast/fungi (malt yeast agar); format: cell-based, Candida albicans ATCC 10231; settings: 30° C., yeast read after 48 h, read-out: Minimum Inhibitory Concentration, Ca
Description: as §1, §2, §3, §4, §5

[17] = system: marine organisms; assay: Marine antifouling rating on test panels exposed to the marine environment
Description: Test panels are prepared from clear, rigid polyvinyl chloride film that is 0.381×10^-3 m thick and has one textured surface. The test panels are 0.1524 m by 0.1524 m squares that have 0.00635 m holes punched at corners on 0.127 m centers. A 0.102 square template, with a 0.067 m diameter hole at the center, is attached to the center of the textured surface of the test panels.
The candidate marine antifoulant compound (1.0 g) is stirred into a resinous latex binder (9.0 g). A portion of the compound/binder mixture (1.5 g) is added to the center of the test panel and uniformly spread over the circular area inside the template.
Water is added dropwise as needed to properly spread the compound/binder mixture. The template prevents the compound/binder mixture from spreading beyond the uncovered area. The test panel is allowed to sit for between 10 to 30 minutes until the edge of the spread compound/binder mixture has dried. The template is then removed. The test panel is then allowed to dry for 8 to 12 hours at room temperature.
Two test panels are prepared for each candidate marine antifoulant compound. Two control test panels are also prepared by only treating with the resinous latex binder. One test panel of each candidate marine antifoulant compound is attached over a white background to the topside of an exposure support apparatus. The second test panel is attached over a black background to the underside of the exposure support apparatus. The exposure support apparatus is placed horizontally 0.0254 m under a marine surface with the white background topside facing up. […]
After being removed from the exposure support apparatus, each test panel is inspected and rated for marine organism growth on both the treated and untreated areas of the test panel. The marine organisms present on the treated and untreated areas are noted. The presence of algae spores and bacterial slime are noted but not included in rating each test panel. The test panels are rated on a scale from 10 (representing completely free of marine organism growth) to 0 (representing completely covered with marine organism growth).
In Table IV, the marine antifouling rating values for ((4-phenyl-1,2,5-thiadiazol-3-yl)oxy)methyl ester is set forth, as well as the ratings for control panels (with no marine antifouling compound and referred to as "Control").

[18] = 16 weeks, scale 10 (completely free of growth) to 0 (completely covered), control --

N#CSCOc1nsnc1-c1cccc(Cl)c1 [II, ((4-(3-Chlorophenyl)-1,2,5-thiadiazol-3-yl)oxy)methyl ester thiocyanic acid]
MIC [1]: < 1 mg/L
MIC ([2]; pH 6.8, nutrient agar): > 500 mg/L
MIC ([2]; pH 8.2, nutrient agar): > 500 mg/L
MIC ([3]; pH 6.8, nutrient agar): 500 mg/L (≈ 1760 µM)
MIC ([3]; pH 8.2, nutrient agar): 500 mg/L (≈ 1760 µM)
MIC [4]: 10 mg/L (≈ 35.2 µM)
MIC ([5]; pH 6.8, nutrient agar): > 500 mg/L
MIC ([5]; pH 8.2, nutrient agar): 500 mg/L (≈ 1760 µM)
MIC ([6]; pH 6.8, nutrient agar): 500 mg/L (≈ 1760 µM)
MIC ([6]; pH 8.2, nutrient agar): > 500 mg/L
MIC ([7]; pH 6.8, nutrient agar): < 10 mg/L
MIC ([7]; pH 8.2, nutrient agar): < 10 mg/L
MIC [8]: 2.5 mg/L (≈ 8.81 µM)
MIC ([9]; pH 6.8, nutrient agar): > 500 mg/L
MIC ([9]; pH 8.2, nutrient agar): > 500 mg/L
MIC [10]: < 1 mg/L
MIC [11]: 500 mg/L (≈ 1760 µM)
MIC [12]: 2.5 mg/L (≈ 8.81 µM)
MIC ([13]; pH 6.8, nutrient agar): < 10 mg/L
MIC ([13]; pH 8.2, nutrient agar): < 10 mg/L
MIC ([14]; pH 6.8, nutrient agar): > 500 mg/L
MIC ([14]; pH 8.2, nutrient agar): 500 mg/L (≈ 1760 µM)
MIC ([15]; pH 6.8, nutrient agar): 500 mg/L (≈ 1760 µM)
MIC ([15]; pH 8.2, nutrient agar): > 500 mg/L
MIC [16]: 5 mg/L (≈ 17.6 µM)

N#CSCOc1nsnc1-c1ccccc1 [Example I, ((4-Phenyl-1,2,5-thiadiazol-3-yl)oxy)methyl ester thiocyanic acid]
MIC [1]: 2.5 mg/L (≈ 10 µM)
MIC ([2]; pH 6.8, nutrient agar): > 500 mg/L
MIC ([2]; pH 8.2, nutrient agar): > 500 mg/L
MIC ([3]; pH 6.8, nutrient agar): 500 mg/L (≈ 2010 µM)
MIC ([3]; pH 8.2, nutrient agar): 500 mg/L (≈ 2010 µM)
MIC [4]: 5 mg/L (≈ 20.1 µM)
MIC ([5]; pH 6.8, nutrient agar): > 500 mg/L
MIC ([5]; pH 8.2, nutrient agar): 500 mg/L (≈ 2010 µM)
MIC ([6]; pH 6.8, nutrient agar): 500 mg/L (≈ 2010 µM)
MIC ([6]; pH 8.2, nutrient agar): > 500 mg/L
MIC ([7]; pH 6.8, nutrient agar): 25 mg/L (≈ 100 µM)
MIC ([7]; pH 8.2, nutrient agar): 25 mg/L (≈ 100 µM)
MIC [8]: < 1 mg/L
MIC ([9]; pH 6.8, nutrient agar): > 500 mg/L
MIC ([9]; pH 8.2, nutrient agar): > 500 mg/L
MIC [10]: < 1 mg/L
MIC [11]: 25 mg/L (≈ 100 µM)
MIC [12]: < 1 mg/L
MIC ([13]; pH 6.8, nutrient agar): < 10 mg/L
MIC ([13]; pH 8.2, nutrient agar): < 10 mg/L
MIC ([14]; pH 6.8, nutrient agar): > 500 mg/L
MIC ([14]; pH 8.2, nutrient agar): 500 mg/L (≈ 2010 µM)
MIC ([15]; pH 6.8, nutrient agar): 500 mg/L (≈ 2010 µM)
MIC ([15]; pH 8.2, nutrient agar): > 500 mg/L
MIC [16]: 2.5 mg/L (≈ 10 µM)
Marine Antifouling Rating, Bottom Panel ([17]; 6 weeks, scale 10 (completely free of growth) to 0 (completely covered), control 0): 9
Marine Antifouling Rating, Top Panel ([17]; 6 weeks, scale 10 (completely free of marine organism growth) to 0 (completely covered), control 6): 8
Marine Antifouling Rating, Bottom Panel ([17]; 10 weeks, scale 10 (completely free of growth) to 0 (completely covered), control 0): 7
Marine Antifouling Rating, Top Panel ([17]; 10 weeks, scale 10 (completely free of growth) to 0 (completely covered), control 3): 3
Marine Antifouling Rating, Bottom Panel [17, 18]: 2
Marine Antifouling Rating, Top Panel [17, 18]: 8

— US5661165A, “((4-phenyl-1,2,5-thiadiazol-3-yl)oxy)methyl ester thiocyanic acid compounds, compositions containing them and their use as antimicrobial and marine antifouling agents” (The Dow Chemical Company, priority 1996, dated 1997)
